Laboratory results taken from PubChem BioAssay (NCI).
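Compound exposure: 48 hours, 5 concentrations, 96-well plates. At the GI50, growth is halved. TGI: total growth inhibition.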

Legend:
Experiment in all cases: NCI-60 cell line screen, 48 h
OVCAR-4 ovarian = system: OVCAR-4 ovarian
IGROV1 ovarian = system: IGROV1 ovarian
MALME-3M melanoma = system: MALME-3M melanoma
786-0 renal = system: 786-0 renal
SK-MEL-28 melanoma = system: SK-MEL-28 melanoma
MCF7 breast = system: MCF7 breast
CAKI-1 renal = system: CAKI-1 renal
SK-MEL-2 melanoma = system: SK-MEL-2 melanoma
A549 NSCLC = system: A549 NSCLC
OVCAR-3 ovarian = system: OVCAR-3 ovarian

Structure (SMILES)	TGI (OVCAR-4 ovarian) [µM]	TGI (IGROV1 ovarian) [µM]	TGI (MALME-3M melanoma) [µM]	TGI (786-0 renal) [µM]	TGI (SK-MEL-28 melanoma) [µM]	TGI (MCF7 breast) [µM]	TGI (CAKI-1 renal) [µM]	TGI (SK-MEL-2 melanoma) [µM]	TGI (A549 NSCLC) [µM]	TGI (OVCAR-3 ovarian) [µM]	GI50 (OVCAR-4 ovarian) [µM]	GI50 (IGROV1 ovarian) [µM]	GI50 (MALME-3M melanoma) [µM]	GI50 (786-0 renal) [µM]	GI50 (SK-MEL-28 melanoma) [µM]	GI50 (MCF7 breast) [µM]	GI50 (CAKI-1 renal) [µM]	GI50 (SK-MEL-2 melanoma) [µM]	GI50 (A549 NSCLC) [µM]	GI50 (OVCAR-3 ovarian) [µM]
CCOP(=O)(OCC)C(C)(CC)NC(=O)C(C(F)(F)F)C(F)(F)F (configuration not stated)	> 100	> 100	> 100	> 100	> 100	> 100	> 100	> 100	> 100	> 100	–	–	–	–	–	–	–	–	–	–
Nc1[nH]c(=O)ncc1CO	> 100	> 100	> 100	> 100	> 100	> 100	> 100	> 100	> 100	> 100	> 100	> 100	> 100	> 100	> 100	> 100	> 100	> 100	> 100	> 100
CC(=O)N(Cc1ccccc1)c1ccccc1I(=O)=O	> 100	> 100	> 100	> 100	> 100	40.5	> 100	> 100	> 100	> 100	65.4	15.5	19.3	57.8	34.5	16.5	42.2	63.6	55.6	33.9
COC(=O)c1c(C)nc(C)c(NO)c1-c1ccccc1C(F)(F)F	39.2	35.6	32.8	30.2	38.1	39.2	43.3	> 100	> 100	30.3	–	–	–	–	–	–	–	–	–	–
Nc1ccc(S(=O)(=O)Nc2cnc3c(Cl)cccc3n2)cc1	> 672	> 275	> 750	> 750	723	> 721	> 698	707	> 750	411	> 78.1	1.16	–	–	> 69.4	45.3	99.2	–	–	–
CCOP(=O)(Nc1ccc2oc(=O)c3ccccc3c2c1)OCC	> 100	> 100	> 100	> 100	> 100	> 100	> 100	> 100	> 100	> 100	–	–	–	–	–	–	–	–	–	–
CC1CCC2N(C1)CC1C3(O)CC45OC6(O)C(O)CCC4(C)C6CCC5C3(O)CC(O)C1(O)C2(C)O (configuration not stated)	> 100	> 100	> 100	> 100	> 100	> 100	> 100	> 100	> 100	> 100	–	–	–	–	–	–	–	–	–	–
COc1ccc(C(O)CC(O)(C(F)(F)F)C(F)(F)F)cc1 (configuration not stated)	> 100	84.4	49.1	> 100	> 100	> 100	55.1	40.8	> 100	69.8	–	–	–	–	–	–	–	–	–	–
CC/C=C\C/C=C\C[C@H](O)C/C=C1/C(=O)C=C[C@@H]1C/C=C\CCCC(=O)OC	20.2	7.86	4.88	3.52	4	5.2	14.5	3.79	5.62	2.2	4.06	2.86	1.92	1.82	1.78	0.329	3.41	1.72	2.4	0.799
Cc1cc(C(O)CN(C)C)cc2c1ccc1cc(C(C)C)ccc12 (configuration not stated)	4.84	3.8	3.83	3.4	3.36	3.19	3.11	3.92	3.54	3.6	2.33	1.85	1.92	1.84	1.88	1.71	1.42	2	1.93	1.92
Cc1nc(N)nc2ccccc12	> 100	> 100	> 100	> 100	> 100	> 100	> 100	> 100	> 100	> 100	–	–	–	–	–	–	–	–	–	–
N=C1C=C(N)C(=O)c2[nH]c(=O)ccc21	2.74	3.39	6.19	3.48	36.8	1.78	13	4.48	4.99	2.96	–	–	–	–	–	–	–	–	–	–
CC(NC(=O)c1ccccc1)(C(=O)O)C(=O)O	> 100	> 100	> 100	> 100	> 100	> 100	> 100	> 100	> 100	> 100	–	–	–	–	–	–	–	–	–	–
CO[C@@]12[C@@H]3NC3CN1C1=C(C(=O)C(N)=C(C)C1=O)[C@@H]2COC(N)=O (some centres not stated)	33.9	4	2.21	2.77	5.47	7.55	2.08	4.41	3.62	3.07	2.22	1.3	0.511	–	1.39	0.0809	–	1.91	–	1.07
COc1ccc2nc3ccccc3c(NCCCCN(C)CCCl)c2c1	0.843	0.877	1.06	0.185	2.39	0.172	0.381	0.666	1.87	0.712	–	–	–	–	–	–	–	–	–	–
